According to patent US20050239656A1, “Pyridine compounds or salts thereof and herbicides containing the same” (priority 2002, published 2005):

Assays:
[1] = system: barnyardgrass; test: Test Example 2: soil surface treatment, upland pot test; type: in vivo, Echinochloa crus-galli L.; conditions: observed 20th to 28th day
In short: (§1)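 Pre-emergence: the soil surface was sprayed 1 day after sowing with wettable powder or emulsifiable concentrate diluted in water at 1,500 L/ha, at a predetermined active ingredient amount. Growth control was scored visually 20–28 days after treatment, 0 (untreated) to 100 (complete kill).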

[2] = system: corn; test: Test Example 1: foliage treatment, upland pot test; type: in vivo, Zea mays L.; conditions: crop, observed 18th to 23rd day, 0 = non-treated, 100 = complete kill
In short: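 Corn seeds were sown in upland field soil held in a 1/170,000 ha pot and grown to the 2.1 to 3.2 leaf stage. A wettable powder or emulsifiable concentrate of the test compound was diluted with water at 500 L/ha, given 0.1% (v/v) agricultural spreader, and sprayed onto the foliage with a small sprayer. Growth controlling degree (%) was scored visually 18th to 23rd days later, from 0 (non-treated) to 100 (complete kill).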

[3] = system: redroot pigweed; test: Test Example 1: foliage treatment, upland pot test; type: in vivo, Amaranthus retroflexus L.; conditions: observed 18th to 23rd day, 0 = non-treated, 100 = complete kill
[4] = system: barnyardgrass; test: Test Example 3: paddy pot test, application under submerged conditions; type: in vivo, Echinochloa crus-galli L.; conditions: active ingredient 500 g/ha; submerged application at 0.5 leaf stage; visually observed 14 days after application; 0 = non-treated, 100 = complete kill
In short: (§2)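 Seeds were sown in flooded paddy soil (0.5–1 cm water), wapato tubers were planted 1–2 days later, and water was then held at 3–4 cm. Diluted wettable powder or emulsifiable concentrate was pipetted into the water at the 0.5 leaf or primary leaf stage. Growth control was visually scored at 14 days (0–100%).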

[5] = system: japanese bulrush; test: as above; type: in vivo, Scirpus juncoides; conditions: active ingredient 500 g/ha; submerged application at 0.5 leaf stage; visually observed 14 days after application; 0 = non-treated, 100 = complete kill
In short: as §2

[6] = system: velvetleaf; test: Test Example 2: soil surface treatment, upland pot test; type: in vivo, Abutilon theophrasti MEDIC.; conditions: observed 20th to 28th day
In short: as §1

[7] = system: rice; test: Test Example 1: foliage treatment, upland pot test; type: in vivo, Oryza sativa L.; conditions: crop, observed 18th to 23rd day, 0 = non-treated, 100 = complete kill
In short: (§3)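 Each plant species was sprayed once on its foliage, with wheat at 1.3–2.4, soybean at 0.1–0.4, barnyardgrass at 1.3–2.8 and rice at 1.2–2.6 leaves. Visual ratings of growth inhibition, 0 to 100%, followed 18–23 days later.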

[8] = system: prickly sida; test: Test Example 1: foliage treatment, upland pot test; type: in vivo, Sida spinosa L.; conditions: observed 18th to 23rd day, 0 = non-treated, 100 = complete kill
[9] = system: corn; test: Test Example 2: soil surface treatment, upland pot test; type: in vivo, Zea mays L.; conditions: observed 20th to 28th day
In short: as §1

[10] = system: soybean; test: Test Example 1: foliage treatment, upland pot test; type: in vivo, Glycine max Merr.; conditions: crop, observed 18th to 23rd day, 0 = non-treated, 100 = complete kill
In short: as §3

[11] = system: velvetleaf; test: Test Example 1: foliage treatment, upland pot test; type: in vivo, Abutilon theophrasti MEDIC.; conditions: observed 18th to 23rd day, 0 = non-treated, 100 = complete kill
[12] = system: green foxtail; test: Test Example 2: soil surface treatment, upland pot test; type: in vivo, Setaria viridis L.; conditions: observed 20th to 28th day
In short: as §1

[13] = system: rice; test: as above; type: in vivo, Oryza sativa L.; conditions: observed 20th to 28th day
In short: as §1

[14] = system: green foxtail; test: Test Example 1: foliage treatment, upland pot test; type: in vivo, Setaria viridis L.; conditions: observed 18th to 23rd day, 0 = non-treated, 100 = complete kill
Description: (§4) Upland field soil was put into a 1/170,000 ha pot, and seed of various plants were sown. Then, when the plants reached predetermined leaf stages ((1) barnyardgrass: 1.3 to 2.8 leaf stages, (2) crabgrass: 1.0 to 2.8 leaf stages, (3) green foxtail: 1.3 to 2.6 leaf stages, (4) redroot pigweed: 0.1 to 1.2 leaf stages, (5) prickly sida: 0.1 to 1.2 leaf stages, (6) velvetleaf: 0.1 to 1.2 leaf stages, (7) tall morningglory: 0.1 to 1.5 leaf stages, (8) rice: 1.2 to 2.6 leaf stages, (9) wheat: 1.3 to 2.4 leaf stages, (10) corn, 2.1 to 3.2 leaf stages, (11) soybean: 0.1 to 0.4 leaf stage), a wettable powder or emulsifiable concentrate having the compound of the present invention formulated in accordance with a usual formulation method, was weighed so that the active ingredient would be a predetermined amount, and diluted with water in an amount of 500 L/ha. To the diluted solution, 0.1% (v/v) of agricultural spreader was added. The herbicide thus adjusted was applied by a small size sprayer for foliage treatment. On the 18th to 23rd days after the application of the herbicide, the growth of the respective plants was visually observed, and the herbicidal effects were evaluated by the growth controlling degrees (%) ranging from 0 (equivalent to the non-treated plot) to 100 (complete kill), whereby the results shown in Table 3, were obtained.

[15] = system: crabgrass; test: Test Example 2: soil surface treatment, upland pot test; type: in vivo, Digitaria sanguinalis L.; conditions: observed 20th to 28th day
In short: as §1

[16] = system: crabgrass; test: Test Example 1: foliage treatment, upland pot test; type: in vivo, Digitaria sanguinalis L.; conditions: observed 18th to 23rd day, 0 = non-treated, 100 = complete kill
Description: as §4

[17] = system: soybean; test: Test Example 2: soil surface treatment, upland pot test; type: in vivo, Glycine max Merr.; conditions: observed 20th to 28th day
In short: as §1

[18] = system: barnyardgrass; test: Test Example 1: foliage treatment, upland pot test; type: in vivo, Echinochloa crus-galli L.; conditions: observed 18th to 23rd day, 0 = non-treated, 100 = complete kill
In short: as §3

[19] = system: rice (var. Nihonbare); test: Test Example 3: paddy pot test, transplanted rice; type: in vivo, Oryza sativa L.; conditions: active ingredient 500 g/ha, applied 4th day after transplantation, visually observed 21st day after application, 0 = non-treated, 100 = complete kill
In short: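 Rice (2-leaf stage) was transplanted 3 cm deep into puddled, leveled paddy soil under 3–4 cm flooding. On day 4 after transplanting, diluted wettable powder or emulsifiable concentrate was pipetted onto the water at a predetermined active-ingredient dose. Growth control (0 = untreated, 100 = complete kill) was scored visually 21 days later.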

[20] = system: japanese ribbon wapato; test: Test Example 3: paddy pot test, application under submerged conditions; type: in vivo, Sagittaria pygniaea; conditions: active ingredient 500 g/ha; submerged application at primary leaf stage; visually observed 14 days after application; 0 = non-treated, 100 = complete kill
In short: as §2

[21] = system: prickly sida; test: Test Example 2: soil surface treatment, upland pot test; type: in vivo, Sida spinosa L.; conditions: observed 20th to 28th day
In short: as §1

[22] = system: redroot pigweed; test: as above; type: in vivo, Amaranthus retroflexus L.; conditions: observed 20th to 28th day
In short: as §1

CC(C)C(c1cnccc1C(F)(F)F)N(C)C(=O)C=Cc1ccc(Br)cc1 (stereo not shown) [I-178]
Growth controlling degree (%) Barnyardgrass ([1]; active ingredient 500 g/ha): 90%
Growth controlling degree (%) Corn ([2]; active ingredient 500 g/ha): 10%
Growth controlling degree (%) Redroot pigweed ([3]; active ingredient 500 g/ha): 70%
Growth controlling degree (%) Barnyardgrass [4]: 98%
Growth controlling degree (%) Japanese bulrush [5]: 95%
Growth controlling degree (%) Velvetleaf ([6]; active ingredient 500 g/ha): 40%
Growth controlling degree (%) Rice ([7]; active ingredient 500 g/ha): 40%
Growth controlling degree (%) Prickly sida ([8]; active ingredient 500 g/ha): 95%
Growth controlling degree (%) Corn ([9]; active ingredient 500 g/ha): 10%
Growth controlling degree (%) Soybean ([10]; active ingredient 500 g/ha): 60%
Growth controlling degree (%) Velvetleaf ([11]; active ingredient 500 g/ha): 95%
Growth controlling degree (%) Green foxtail ([12]; active ingredient 500 g/ha): 100%
Growth controlling degree (%) Rice ([13]; active ingredient 500 g/ha): 40%
Growth controlling degree (%) Green foxtail ([14]; active ingredient 500 g/ha): 60%
Growth controlling degree (%) Crabgrass ([15]; active ingredient 500 g/ha): 98%
Growth controlling degree (%) Crabgrass ([16]; active ingredient 500 g/ha): 60%
Growth controlling degree (%) Soyabean ([17]; active ingredient 500 g/ha): 0%
Growth controlling degree (%) Barnyardgrass ([18]; active ingredient 500 g/ha): 50%
Growth controlling degree (%) Rice [19]: 0%
Growth controlling degree (%) Japanese ribbon wapato [20]: 40%
Growth controlling degree (%) Prickly sida ([21]; active ingredient 500 g/ha): 30%
Growth controlling degree (%) Redroot pigweed ([22]; active ingredient 500 g/ha): 40%

CC(C)C(c1cnccc1C(F)(F)F)N(C)C(=O)Cc1ccc(F)cc1 (stereo not shown) [I-21]
Growth controlling degree (%) Barnyardgrass ([1]; active ingredient 250 g/ha): 60%
Growth controlling degree (%) Corn ([2]; active ingredient 500 g/ha): 30%
Growth controlling degree (%) Redroot pigweed ([3]; active ingredient 500 g/ha): 90%
Growth controlling degree (%) Japanese bulrush [5]: 98%
Growth controlling degree (%) Velvetleaf ([6]; active ingredient 250 g/ha): 70%
Growth controlling degree (%) Rice ([7]; active ingredient 500 g/ha): 20%
Growth controlling degree (%) Prickly sida ([8]; active ingredient 500 g/ha): 90%
Growth controlling degree (%) Corn ([9]; active ingredient 250 g/ha): 50%
Growth controlling degree (%) Soybean ([10]; active ingredient 500 g/ha): 70%
Growth controlling degree (%) Velvetleaf ([11]; active ingredient 500 g/ha): 95%
Growth controlling degree (%) Green foxtail ([12]; active ingredient 250 g/ha): 90%
Growth controlling degree (%) Rice ([13]; active ingredient 250 g/ha): 40%
Growth controlling degree (%) Green foxtail ([14]; active ingredient 500 g/ha): 70%
Growth controlling degree (%) Crabgrass ([15]; active ingredient 250 g/ha): 98%
Growth controlling degree (%) Crabgrass ([16]; active ingredient 500 g/ha): 95%
Growth controlling degree (%) Soyabean ([17]; active ingredient 250 g/ha): 20%
Growth controlling degree (%) Barnyardgrass ([18]; active ingredient 500 g/ha): 80%
Growth controlling degree (%) Rice [19]: 40%
Growth controlling degree (%) Japanese ribbon wapato [20]: 100%
Growth controlling degree (%) Prickly sida ([21]; active ingredient 250 g/ha): 80%
Growth controlling degree (%) Redroot pigweed ([22]; active ingredient 250 g/ha): 90%

CC(C)C(c1cnccc1C(F)(F)F)N(C)C(=O)Cc1ccc(F)cc1F (stereo not shown) [I-18]
Growth controlling degree (%) Barnyardgrass ([1]; active ingredient 500 g/ha): 100%
Growth controlling degree (%) Corn ([2]; active ingredient 1000 g/ha): 80%
Growth controlling degree (%) Redroot pigweed ([3]; active ingredient 1000 g/ha): 90%
Growth controlling degree (%) Japanese bulrush [5]: 90%
Growth controlling degree (%) Velvetleaf ([6]; active ingredient 500 g/ha): 80%
Growth controlling degree (%) Rice ([7]; active ingredient 1000 g/ha): 50%
Growth controlling degree (%) Prickly sida ([8]; active ingredient 1000 g/ha): 90%
Growth controlling degree (%) Corn ([9]; active ingredient 500 g/ha): 50%
Growth controlling degree (%) Soybean ([10]; active ingredient 1000 g/ha): 70%
Growth controlling degree (%) Velvetleaf ([11]; active ingredient 1000 g/ha): 90%
Growth controlling degree (%) Green foxtail ([12]; active ingredient 500 g/ha): 100%
Growth controlling degree (%) Rice ([13]; active ingredient 500 g/ha): 20%
Growth controlling degree (%) Green foxtail ([14]; active ingredient 1000 g/ha): 70%
Growth controlling degree (%) Crabgrass ([15]; active ingredient 500 g/ha): 100%
Growth controlling degree (%) Crabgrass ([16]; active ingredient 1000 g/ha): 90%
Growth controlling degree (%) Soyabean ([17]; active ingredient 500 g/ha): 50%
Growth controlling degree (%) Barnyardgrass ([18]; active ingredient 1000 g/ha): 90%
Growth controlling degree (%) Rice [19]: 10%
Growth controlling degree (%) Japanese ribbon wapato [20]: 90%
Growth controlling degree (%) Prickly sida ([21]; active ingredient 500 g/ha): 80%
Growth controlling degree (%) Redroot pigweed ([22]; active ingredient 500 g/ha): 80%
